This note sets out measurements from patent US6384044B1, “Method of treating cancer of the prostate” (priority 1999, dated 2002).

The structures appear in SMILES notation.

For the assay, the system named is cancer of the prostate. In words: Case reports: treatment of patients with cancer of the prostate (PSA level, bone scans, X-rays, rectal examination). It is filed as in vivo, human. The protocol: Instead, a course of radiation of the involved ribs and lumbar-sacral vertebrae was carried out to reduce pain, following which the patient was referred for further treatment.
They were treated with flutamide plus leuprolide for eight weeks followed by implantation of a radioactive needle into the tumor mass. […] At this point, drug therapy was terminated and local radiation was applied to the lumbar spine to reduce pain. […] Two acquaintances in their sixties had been routinely monitoring their PSA levels every six to twelve months because of their age. […] Both were started immediately on low-dose naltrexone 3 mg/day q.h.s while they considered the desirability of undergoing standard therapies for prostate cancer. This exploration took a period of three months for one and four months for the other with both eventually electing to undergo treatment with flutamide, a testosterone blocking agent.

In the case of `O=C1CC[C@@]2(O)[C@H]3Cc4ccc(O)c5c4[C@@]2(CCN3CC2CC2)[C@H]1O5` [naltrexone, Naltrexone], under “Example 1: continued naltrexone treatment”, the “Symptom-free follow-up with normal bone scans and very low PSA readings” value is on record as 18 months. Also, under “Example 1: naltrexone 3 mg/day q.h.s., after four months”, the “Tumor on bone scans” value is “disappeared”. Further, the PSA level entry (Example 1: person, bone metastases, after failed drug therapy and radiation, naltrexone 3 mg/day q.h.s., after four months) is “less than 1.0”. Besides, the “X-rays of the spine” value (Example 2: naltrexone 3 mg day q.h.s., over five months) is “became normal”. Where the note is “Example 2: person, lumbar vertebrae lesions, after failed drug therapy and local radiation, naltrexone 3 mg day q.h.s., over five months”, the PSA reading result is “zero”. The Tumor shrinkage result (Examples 3 and 4: two men, untreated adenocarcinoma of the prostate, naltrexone 3 mg/day q.h.s. alone for three / four months) was “substantial shrinkage, by more than one-half”.
